This is an account of results in patent US8957083B2, “Spiro-amino-imidazolone and spiro-amino-dihydro-pyrimidinone compounds as beta-secretase modulators and methods of use” (Amgen Inc., priority 2010, dated 2015).

Read-outs that look alike come from different tables or passages of the source. Some results are limits rather than exact numbers.

Experiment [1] concerns the target BACE 1 (Beta Secretase enzyme) (Homo sapiens (Human), UniProt P56817). Description: In vitro enzymatic BACE FRET assay. Format: biochemical. The note with it: enzyme 0.2 nM, FRET substrate 50 nM, pH 4.2. The procedure:
In Vitro Enzymatic BACE FRET (Fluorescence Resonance Energy Transfer) Assay (Enzyme Assay Data in the Example Table I)
The assay buffer used in this screen is 0.05 M acetate, pH 4.2, 10% DMSO final, 100 uM genapol (which is a nonionic detergent, below its Critical Micelle Concentration). […] This assay is effectively started by the addition of FRET substrate (50 nM) and the combination is incubated for one hour. The FRET assay is terminated with by addition of Tris buffer, which raises the pH to neutrality, and the fluorescence is determined. The FRET substrate is a peptide with commercially available fluorophore and quencher, on opposite sides of the BACE cleavage site. Proteolytic cleavage of the FRET substrate releases quenching of fluorescence (excitation […] and […]).

For experiment [2], the system named is Aβ40 in conditioned medium of cells expressing amyloid precursor protein. Description: In vitro BACE cell-based assay (HEK cell assay), Aβ40 sandwich ELISA. The conditions noted are these: Aβ40 in supernatant after 24 h incubation. The procedure: In Vitro BACE Cell-Based Assay
The cell-based assay measures inhibition or reduction of Aβ40 in conditioned medium of test compound treated cells expressing amyloid precursor protein.
Cells stably expressing Amyloid Precursor Protein (APP) were plated at a density of 40K cells/well in 96 well plates (Costar). The cells were cultivated for 24 hours at 37° C. and 5% CO2 in DMEM supplemented with 10% FBS. The test compounds were then added to cells in 10-point dose response concentrations with the starting concentration being either 100 μM or 10 μM. The compounds were diluted from stock solutions in DMSO and the final DMSO concentration of the test compounds on cells was 0.1%. After 24 h of incubation with the test compounds the supernatant conditioned media was collected and the Aβ 40 levels were determined using a sandwich ELISA. The IC50 of the compound was calculated from the percent of control or percent inhibition of Aβ 40 as a function of the concentration of the test compound.
The sandwich ELISA to detect Aβ 40 was performed in 96 well microtiter plates, which were pre-treated with goat anti-rabbit IgG (Pierce). The capture and detecting antibody pair that were used to detect Aβ 40 from cell supernatants were affinity purified pAb40 (Biosource) and biotinylated 6E10 (Signet Labs Inc.), respectively. The optimal concentration for the pAb40 antibody was 3 μg/ml in Superblock/TBS (Pierce) that was supplemented with 0.05% Tween 20 (Sigma).
Cellular supernatants were incubated with the capture antibody for 3 h at 4° C., followed by 3 wash steps in TBS-tween (0.05%). The detecting antibody incubation was for 2 h at 4° C., again followed by the wash steps as described previously. The final readout of the ELISA is Time-Resolved Fluorescence (counts per minute) using Delfia reagents Streptavidin-Europium and Enhancement solutions (Perkin Elmer) and the Victor 2 multilabel counter (Perkin Elmer).
A general note: ELISA stands for enzyme-linked immunosorbent assay.

The mark [3] stands for this setting: average IC50, read-out: BACE 1 FRET assay.
Setting [4] is: Homo sapiens, HEK293, 24 h, average IC50, read-out: HEK cell assay.
Where [5] appears, read: average IC50, read-out: HEK cell assay.
Setting [6] is: class symbols, read-out: BACE 1 FRET assay (IC50 class).
The mark [7] stands for this setting: Homo sapiens, HEK293, 24 h, class symbols, read-out: HEK cell assay (IC50 class).

Chain of BACE 1 (Beta Secretase enzyme) (P56817 46-501): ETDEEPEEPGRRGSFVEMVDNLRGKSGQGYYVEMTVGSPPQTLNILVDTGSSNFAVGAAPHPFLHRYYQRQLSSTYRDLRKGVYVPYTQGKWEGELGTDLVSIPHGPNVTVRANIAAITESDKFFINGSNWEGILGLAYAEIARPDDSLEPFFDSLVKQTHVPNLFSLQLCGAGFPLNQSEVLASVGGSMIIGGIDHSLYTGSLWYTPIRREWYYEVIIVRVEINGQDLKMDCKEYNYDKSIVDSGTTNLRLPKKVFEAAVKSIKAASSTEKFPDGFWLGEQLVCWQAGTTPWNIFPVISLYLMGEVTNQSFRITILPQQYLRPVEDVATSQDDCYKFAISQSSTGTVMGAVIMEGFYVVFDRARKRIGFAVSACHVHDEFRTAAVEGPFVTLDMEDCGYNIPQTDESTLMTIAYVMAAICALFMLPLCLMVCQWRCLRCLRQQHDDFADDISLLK

In the case of `CN1C(=O)C[C@@]2(N=C1N)c1cc(-c3cccnc3F)ccc1Oc1c2cc(Cl)nc1F` [Example 14, (R)-2′-amino-3-chloro-1-fluoro-7-(2-fluoropyridin-3-yl)-1′-methyl-1′H-spiro[chromeno[2,3-c]pyridine-5,4′-pyrimidin]-6′(5′H)-one], the IC50 is 8210 nM in experiment [1] (setting [3]) and 361 nM in experiment [2] (setting [4]).
In the case of `CN1C(=O)C[C@@]2(N=C1N)c1cc(-c3cccnc3F)ccc1Oc1cnc(C3=CCCOC3)cc12` [Example 25, (R)-2′-amino-3-(5,6-dihydro-2H-pyran-3-yl)-7-(2-fluoropyridin-3-yl)-1′-methyl-1′H-spiro[chromeno[2,3-c]pyridine-5,4′-pyrimidin]-6′(5′H)-one], the IC50 in experiment [1] (setting [3]) was determined as 2430 nM; in experiment [2] (setting [4]), 6170 nM.
Turning to `Cc1ccc(-c2cc(F)c3c(c2)[C@]2(N=C(N)N(C)C2=O)c2cc(-c4cccc(Cl)c4)ccc2O3)cc1` [Example 36, (4R)-2-amino-7′-(3-chlorophenyl)-4′-fluoro-1-methyl-2′-(4-methylphenyl)spiro[imidazole-4,9′-xanthen]-5(1H)-one], the IC50 in experiment [1] (setting [3]) is 225 nM; in experiment [2] (setting [5]), over 10000 nM.
For `CN1C(=O)[C@]2(N=C1N)c1cc(-c3cccnc3F)ccc1Oc1c(F)cc(-c3ccnc(F)c3)cc12` [Example 39, (4S)-2-amino-4′-fluoro-7′-(2-fluoro-3-pyridinyl)-2′-(2-fluoro-4-pyridinyl)-1-methylspiro[imidazole-4,9′-xanthen]-5(1H)-one], the IC50 in experiment [2] (setting [4]) was determined as 3.1 nM.
As to `CN1C(=O)CC2(N=C1N)c1cc(Br)ccc1Oc1c2cc(Cl)nc1F` (centres unmarked) [Example 11, 2′-amino-7-bromo-3-chloro-1-fluoro-1′-methyl-1′H-spiro[chromeno[2,3-c]pyridine-5,4′-pyrimidin]-6′(5′H)-one], the IC50 in experiment [1] (setting [6]) and in experiment [2] (setting [7]) was over 1000 nM each time.
Turning to `Cc1ccc(-c2cc(F)c3c(c2)[C@@]2(N=C(N)N(C)C2=O)c2cc(-c4cccc(Cl)c4)ccc2O3)cc1` [Example 37, (4S)-2-amino-7′-(3-chlorophenyl)-4′-fluoro-1-methyl-2′-(4-methylphenyl)spiro[imidazole-4,9′-xanthen]-5(1H)-one], the IC50 in experiment [1] (setting [3]) came to 2.9 nM; in experiment [2] (setting [4]) it was 147 nM.
Taken in the same sequence, the figures for `CN1C(=O)C[C@]2(N=C1N)c1cc(-c3cccnc3F)ccc1Oc1c2cc(C2CCOC(C)(C)C2)nc1F` (stereo partly drawn) [Example 28, (4′S)-2′-amino-3-(2,2-dimethyltetrahydro-2H-pyran-4-yl)-1-fluoro-7-(2-fluoropyridin-3-yl)-1′-methyl-1′H-spiro[chromeno[2,3-c]pyridine-5,4′-pyrimidin]-6′(5′H)-one] were 2 nM and 2.2 nM.
On to `CN1C(=O)C[C@]2(N=C1N)c1cc(-c3cccnc3F)ccc1Oc1c2cc(C2=CCOC(C)(C)C2)nc1F` [Example 27, (S)-2′-amino-3-(2,2-dimethyl-3,6-dihydro-2H-pyran-4-yl)-1-fluoro-7-(2-fluoropyridin-3-yl)-1′-methyl-1′H-spiro[chromeno[2,3-c]pyridine-5,4′-pyrimidin]-6′(5′H)-one], for which the IC50 in experiment [1] (setting [3]) came to 0.7 nM; in experiment [2] (setting [4]) it was 5 nM.
On to `CN1C(=O)[C@@]2(N=C1N)c1cc(-c3cccc(Cl)c3)ccc1Oc1c(F)cc(C3=CCOCC3)cc12` [Example 35, (4R)-2-amino-7′-(3-chlorophenyl)-2′-(3,6-dihydro-2H-pyran-4-yl)-4′-fluoro-1-methylspiro[imidazole-4,9′-xanthen]-5(1H)-one], for which the IC50 amounted to 24.3 nM in experiment [1] (setting [3]) and 1820 nM in experiment [2] (setting [4]).
For `CN1C(=O)C[C@@]2(N=C1N)c1cc(-c3cccnc3F)ccc1Oc1cnc(C3=CCOCC3)cc12` [Example 23, (R)-2′-amino-3-(3,6-dihydro-2H-pyran-4-yl)-7-(2-fluoropyridin-3-yl)-1′-methyl-1′H-spiro[chromeno[2,3-c]pyridine-5,4′-pyrimidin]-6′(5′H)-one], in that order: 1750 nM and 1680 nM.
For `CN1C(=O)C[C@@]2(N=C1N)c1cc(-c3cccnc3F)ccc1Oc1cnc(-c3ccnc(F)c3)cc12` [Example 21-A, (R)-7-(2-Fluoropyridin-3-yl)-3-(2-fluoropyridin-4-yl)-2′-imino-1′-methyl-2′,3′-dihydro-1′H-spiro[chromeno[2,3-c]pyridine-5,4′-pyrimidin]-6′(5′H)-one], the IC50 in experiment [2] (setting [4]) came to 2380 nM.
As for `CN1C(=O)C[C@]2(N=C1N)c1cc(-c3cccnc3F)ccc1Oc1c2cc(-c2ccnc(F)c2)nc1F` [Example 19, (S)-2′-amino-1-fluoro-7-(2-fluoropyridin-3-yl)-3-(2-fluoropyridin-4-yl)-1′-methyl-1′H-spiro[chromeno[2,3-c]pyridine-5,4′-pyrimidin]-6′(5′H)-one], the IC50 in experiment [1] (setting [3]) was 1.4 nM; in experiment [2] (setting [4]), 82 nM.
On to `CC#Cc1cncc(-c2ccc3c(c2)[C@]2(N=C(N)N(C)C2=O)c2cc(C4=CCOCC4)cc(F)c2O3)c1` [Example 32, (4S)-2-amino-2′-(3,6-dihydro-2H-pyran-4-yl)-4′-fluoro-1-methyl-7′-(5-(1-propyn-1-yl)-3-pyridinyl)spiro[imidazole-4,9′-xanthen]-5(1H)-one], for which the IC50 in experiment [1] (setting [3]) was 0.5 nM; in experiment [2] (setting [5]), 7.6 nM.
In the case of `CN1C(=N)N[C@@]2(CC1=O)c1cc(Br)ccc1Oc1cnc(Cl)cc12` [Example 20-A, (S)-7-bromo-3-chloro-2′-imino-1′-methyl-2′,3′-dihydro-1′H-spiro[chromeno[2,3-c]pyridine-5,4′-pyrimidin]-6′(5′H)-one], the IC50 in experiment [1] (setting [6]) and in experiment [2] (setting [7]) was over 1000 nM throughout.
In the case of `CN1C(=O)CC2(N=C1N)c1cc(-c3cccnc3F)ccc1Oc1c2cc(-c2cccnc2F)nc1F` (centres unmarked) [Example 13, 2′-amino-1-fluoro-3,7-bis(2-fluoropyridin-3-yl)-1′-methyl-1′H-spiro[chromeno[2,3-c]pyridine-5,4′-pyrimidin]-6′(5′H)-one], the IC50 in experiment [1] (setting [3]) turned out to be 22.8 nM; in experiment [2] (setting [4]), 154 nM.
`COc1ccc2c(c1)[C@]1(N=C(N)N(C)C1=O)c1cc(-c3ccc(C)cc3)cc(F)c1O2` (mixture of isomers) [Example 29, (4R)-2-amino-4′-fluoro-7′-methoxy-1-methyl-2′-(4-methylphenyl)spiro[imidazole-4,9′-xanthen]-5(1H)-one and (4S)-2-amino-4′-fluoro-7′-methoxy-1-methyl-2′-(4-methylphenyl)spiro[imidazole-4,9′-xanthen]-5(1H)-one]: the IC50 in experiment [1] (setting [3]) came to 13.6 nM; in experiment [2] (setting [4]), 1970 nM.
Turning to `CN1C(=O)[C@@]2(N=C1N)c1cc(-c3cccnc3F)ccc1Oc1c(F)cc(-c3ccnc(F)c3)cc12` [Example 38, (4R)-2-amino-4′-fluoro-7′-(2-fluoro-3-pyridinyl)-2′-(2-fluoro-4-pyridinyl)-1-methylspiro[imidazole-4,9′-xanthen]-5(1H)-one], the IC50 in experiment [2] (setting [4]) worked out at 290 nM.
The same measure, in the same setting: next, `CN1C(=O)C[C@]2(N=C1N)c1cc(-c3cccnc3F)ccc1Oc1cnc(-c3ccnc(F)c3)cc12` [Example 21-B, (S)-7-(2-Fluoropyridin-3-yl)-3-(2-fluoropyridin-4-yl)-2′-imino-1′-methyl-2′,3′-dihydro-1′H-spiro[chromeno[2,3-c]pyridine-5,4′-pyrimidin]-6′(5′H)-one]: 99.5 nM.
